Entries after “also recorded” stand apart in the source; their conditions may differ. Read-outs that look alike come from different tables or passages of the source.
Assays:
[1] = system: Spontaneously hypertensive male rats; experiment: Experiment 1-2 Hypotensive activity (oral, 8 hours); format: in vivo, rat
Procedure: Spontaneously hypertensive male rats (13-15 week age, one group: 3 rats) were used. […] The rats were fixed in a Howlman cage without fasting, and the femoral arterial pressure was measured by a direct method without anesthesia with a cannula which was previously inserted into the femoral artery of the animal, via a pressure transducer (MPU-0.5, manufactured by Nippon Koden K.K.). The test compounds were orally administered in the form of a suspension in 0.5% methyl cellulose solution in a dose of 10 mg/kg (in some compounds, 3 mg/kg). In the control group, only 0.5% methyl cellulose solution was administered likewise. The blood pressure was measured for 5 hours after the administration of test compounds.
The hypotensive activity was measured in the same manner as described in Experiment 1-1 except that the rats were used in 3-5 rats per each group, and the test compounds were administered in a dose of 1 mg/kg (some compounds, 3 mg/kg), and the blood pressure was measured for 8 hours after the administration of test compounds.

[2] = system: isolated heart; experiment: Experiment 2-2 Activity onto the isolated heart (with duration); set-up: species or system Japanese white rabbit; settings: 3 μg/heart
Procedure: Japanese white rabbit (weighing 2.2-2.5 kg) was anesthetized by introvenous injection of nembutal (20 mg/kg) and then sacrificed by bleeding from common carotid artery. […] There were measured the perfusion volume with a drop-counting meter (ET-600G type, manufactured by Nippon Koden K.K.) and the heart pulse and the contractility via a force-displacement transducer (FD pick up, SB-IT type, manufactured by Nippon Koden K.K.) (for measuring heart pulse, an instant pulse meter (AT-601G type, minufactured by Nippon Koden K.K.) being further used).
The test compounds were dissolved in ethanol, and the solution was diluted in 100-fold with purified water, and the diluted solution was administered in an amount of 0.1 ml/heart (i.e. 3 μg/heart).
The activity was measured in the same manner as described in Experiment 2-1 except that in some test compounds, the dose was in 1 μg/heart. Besides, the duration of the activity was evaluated by counting the time until the coronary perfusion volume became to the initial level before the administration of the test compound.

[3] = system: isolated aorta; experiment: Experiment 3 Relaxing activity on the isolated aorta (30 mM KCl contracted); set-up: species or system Japanese white rabbit
Procedure: Japanese white rabbit (weighing 2.3-2.7 kg) was sacrificed by bleeding from common carotid artery. Immediately, the aorta was isolated and cut into a sprial strip. The strip preparation was vertically suspended under a resting tension of 2.0 g in a tissue bath containing 20 ml of modified Ringer solution while bubbling with a mixture of 95% O2 +5% CO2 by connecting one end of the strip to a lever of the above-mentioned FD pick up. The aortic strip was contracted with 30 mM KCl. When the contraction became constant, the test compound was accumulatively administered, and the relaxing effect was measured. After the final treatment, 10^-4T M papaverine was administered and the maximum relaxation obtained thereby was taken as 100%. In comparison with the maximum relaxation obtained by papaverine, the rate of relaxation by the test compounds was evaluated, and the concentration of the test compounds for obtaining 50% relaxation (EC50) was calculated.
The test compound was dissolved in ethanol, and the solution was diluted in 100 to 1×10^4 folds with a nutrient solution, and the diluted solution was administered.

[4] = Experiment 4-2 Acute toxicity, rats; settings: rat, in vivo, po, 4 week age, 7 days
From the text: (§1) Wistar male and female rats (4 week age) and ddy male and female mice (4 week age) were used. The compounds of Example Nos. 82 and 83 were each orally administered to […].

[5] = Experiment 4-2 Acute toxicity, mice; settings: mouse, in vivo, po, 4 week age, 7 days
From the text: as §1

In the case of `CCCCCCCCOC(=O)C1=C(C)NC(C)=C(C(=O)NC2CC2)C1c1ccccc1[N+](=O)[O-]` (stereo not drawn) [Example 82, n-octyl 2,6-dimethyl-3-cyclopropylaminocarbonyl-4-(o-nitrophenyl)-1,4-dihydropyridine-5-carboxylate], the Maximum hypotension ([1]; 1 mg/kg oral) is reported as 48 mmHg, the Recovering time ([1]; 1 mg/kg oral) is reported as over 8.0 h and the “Time for recovering 1/2 of max. hypotension” value ([1]; 1 mg/kg oral) is reported as over 8.0 h. For the same compound, the “Time until reaching to max. hypotension” value ([1]; 1 mg/kg oral) was 180 min, the “hypotensive activity (in words)” value ([1]; Table 5, comparison with nifedipine and nicardipine hydrochloride where stated) was “the same or more potent hypotensive activity with longer duration; also recorded: potent hypotensive activity” and the “Coronary perfusion Duration” value ([2]; time until perfusion volume returned to initial level) was over 120 min. The activation at 3 µg/heart ([2]; Oryctolagus cuniculus, read-out: Coronary perfusion Increase) was 39%, the inhibition at 3 µg/heart ([2]; Oryctolagus cuniculus, read-out: Inhibitory rate of systole) was 30% and the inhibition at 3 µg/heart ([2]; Oryctolagus cuniculus, read-out: Reducing rate of heart pulse) was 25%. The EC50 ([3]; Oryctolagus cuniculus, 30 mM KCl contraction, maximum relaxation by papaverine = 100%, read-out: EC50 (concentration for 50% relaxation)) was 0.44 µM, the “relaxing / vasodilating activity on isolated aorta (in words)” value ([3]; Table 8, comparison with nifedipine and nicardipine hydrochloride, etc. where stated) was “somewhat weak vasodilating activity” and the LD50 at 168 h ([4]; female rats) was 50 mg/kg. For the same compound, the LD50 at 168 h ([4]; male rats) was 320 mg/kg, the LD50 at 168 h ([5]; female mice) was 1140 mg/kg and the LD50 at 168 h ([5]; male mice) was 1280 mg/kg.

— patent publication US4874773A, “3-Aminocarbonyl-1,4-dihydropyridine-5-carboxylic acid compounds, and pharmaceutical composition containing the same” (priority 1985, dated 1989)
